# Measurements as given in US11505573B2, “Peptide macrocycles against Acinetobacter baumannii” (Hoffmann-La Roche Inc., priority 2018, dated 2022).
# Test system: A. baumannii ATCC 17978
# Assay: Antimicrobial susceptibility testing: 50% growth inhibitory concentration (IC50) determination in Iso-Sensitest broth
# Format: cell-based
# Conditions: Acinetobacter baumannii; A. baumannii strain ATCC17978; Iso-Sensitest medium; OD 600 nm over 16 h; 35±2° C.; read-out: IC50 ATCC17978 (50% growth inhibition concentration)
# Procedure: Antimicrobial Susceptibility Testing: 50% Growth Inhibitory Concentration (IC50) Determination The in vitro antimicrobial activity of the compounds was alternatively determined according to the following procedure: The assay used a 10-points Iso-Sensitest broth medium to measure quantitatively the in vitro activity of the compounds against A. baumannii ATCC 17978. Stock compounds in DMSO were serially twofold diluted (e.g. range from 10 to 0.02 μM final concentration) in 384 wells microtiter plates and inoculated with 49 μl the bacterial suspension in Iso-Sensitest medium to have a final cell concentration of ˜5×10^(5) CFU/ml in a final volume/well of […] Microtiter plates were incubated at 35±2° C. Bacterial cell growth was determined by the measurement of optical density at λ=600 nm each 20 minutes over a time course of 16 h. Growth inhibition was calculated during the logarithmic growth of the bacterial cells by determination of the concentration inhibiting 50% (IC50) and 90% (IC90) of the growth. Table 1 provides the 50% growth inhibitory concentrations (IC50) in micromoles per liter of the compounds of present invention obtained against the A. baumannnii strain ATCC17978.
row,SMILES,IC50 [nM]
1,"CN1C(=O)[C@H](CCCCN)NC(=O)[C@H](CCCN)NCc2cccnc2Sc2c(Cl)ccc(-c3ccc(-c4noc(=O)[nH]4)cc3)c2CNC(=O)[C@@H]1Cc1c[nH]c2ccccc12 [Example 4.00, (11S,14S,17S)-14-(4-Aminobutyl)-11-(3-aminopropyl)-25-chloro-17-(1H-indol-3-ylmethyl)-16-methyl-22-[4-(5-oxo-4H-1,2,4-oxadiazol-3-yl)phenyl]-2-thia-4,10,13,16,19-pentazatricyclo[19.4.0.03,8]pentacosa-1(25), 3(8),4,6,21,23-hexaene-12,15,18-trione]",20
2,"CN1C(=O)[C@H](CCCCN)NC(=O)[C@H](CCCN)NCc2cccnc2Sc2c(F)ccc(-c3ccc(S(=O)(=O)O)cc3)c2CNC(=O)[C@@H]1Cc1c[nH]c2ccccc12 [Example 7.00, 4-[(11S,14S,17S)-14-(4-Aminobutyl)-11-(3-aminopropyl)-25-fluoro-17-(1H-indol-3-ylmethyl)-16-methyl-12,15,18-trioxo-2-thia-4,10,13,16,19-pentazatricyclo[19.4.0.03,8]pentacosa-1(25), 3(8),4,6,21,23-hexaen-22-yl]benzenesulfonic acid]",20
3,"CN1C(=O)[C@H](CCCCN)NC(=O)[C@H](CCN)NCc2cccnc2Sc2c(Cl)ccc(-c3ccc(S(=O)(=O)O)cc3)c2CNC(=O)[C@@H]1Cc1c[nH]c2ccccc12 [Example 12.00, 4-[(11S,14S,17S)-14-(4-Aminobutyl)-11-(2-aminoethyl)-25-chloro-17-(1H-indol-3-ylmethyl)-16-methyl-12,15,18-trioxo-2-thia-4,10,13,16,19-pentazatricyclo[19.4.0.03,8]pentacosa-1(25), 3(8),4,6,21,23-hexaen-22-yl]benzenesulfonic acid]",20
4,"CNCCCC[C@@H]1NC(=O)[C@H](CCCO)NCc2cccnc2Sc2c(Cl)ccc(-c3ccc(S(=O)(=O)NC(C)=O)cc3)c2CNC(=O)[C@H](Cc2c[nH]c3ccccc23)N(C)C1=O [Example 18.00, N-[4-[(11S,14S,17S)-25-Chloro-11-(3-hydroxypropyl)-17-(1H-indol-3-ylmethyl)-16-methyl-14-[4-(methylamino)butyl]-12,15,18-trioxo-2-thia-4,10,13,16,19-pentazatricyclo[19.4.0.03,8]pentacosa-1(21),3,5,7,22,24-hexaen-22-yl]phenyl]sulfonylacetamide]",630
5,"CC(=O)NS(=O)(=O)c1ccc(-c2ccc(Cl)c3c2CNC(=O)[C@H](Cc2c[nH]c4ccccc24)N(C)C(=O)[C@H](CCCCNCC(F)F)NC(=O)[C@H](CCCO)NCc2cccnc2S3)cc1 [Example 17.00, N-[4-[(11S,14S,7S)-25-Chloro-14-[4-(2,2-difluoroethylamino)butyl]-11-(3-hydroxypropyl)-17-(1H-indol-3-ylmethyl)-16-methyl-12,15,18-trioxo-2-thia-4,10,13,16,19-pentazatricyclo[19.4.0.03,8]pentacosa-1(21),3,5,7,22,24-hexaen-22-yl]phenyl]sulfonylacetamide]",5220
6,"CN1C(=O)[C@H](CCCCN)NC(=O)[C@H](CCCN)NCc2cccnc2Sc2c(Cl)ccc(-c3ccc4nn[nH]c4c3)c2CNC(=O)[C@@H]1Cc1c[nH]c2ccccc12 [Example 1.01, (11S,14S,17S)-14-(4-aminobutyl)-11-(3-aminopropyl)-22-(3H-benzotriazol-5-yl)-25-chloro-17-(1H-indol-3-ylmethyl)-16-methyl-2-thia-4,10,13,16,19-pentazatricyclo[19.4.0.03,8]pentacosa-1(25),3,5,7,21,23-hexaene-12,15,18-trione]",20
7,"Cc1ccc(-c2ccc(S(=O)(=O)O)cc2)c2c1Sc1ncccc1CN[C@@H](CCCN)C(=O)N[C@@H](CCCCN)C(=O)N(C)[C@@H](Cc1c[nH]c3ccccc13)C(=O)NC2 [Example 11.00, 4-[(11S,14S,17S)-14-(4-Aminobutyl)-11-(3-aminopropyl)-17-(1H-indol-3-ylmethyl)-16,25-dimethyl-12,15,18-trioxo-2-thia-4,10,13,16,19-pentazatricyclo[19.4.0.03,8]pentacosa-1(25), 3(8),4,6,21,23-hexaen-22-yl]benzenesulfonic acid]",20
8,"COc1ccc(-c2ccc(S(=O)(=O)O)cc2)c2c1Sc1ncccc1CN[C@@H](CCCN)C(=O)N[C@@H](CCCCN)C(=O)N(C)[C@@H](Cc1c[nH]c3ccccc13)C(=O)NC2 [Example 15.00, 4-[(11S,14S,17S)-14-(4-Aminobutyl)-11-(3-aminopropyl)-17-(1H-indol-3-ylmethyl)-25-methoxy-16-methyl-12,15,18-trioxo-2-thia-4,10,13,16,19-pentazatricyclo[19.4.0.03,8]pentacosa-1(25), 3(8),4,6,21,23-hexaen-22-yl]benzenesulfonic acid]",80
9,"CN1C(=O)[C@H](CCCCN)NC(=O)[C@H](CCCN)NCc2cccnc2Sc2c(Cl)cc(-c3nnn[nH]3)cc2CNC(=O)[C@@H]1Cc1c[nH]c2ccccc12 [Example 21.00, (11S,14S,17S)-14-(4-Aminobutyl)-11-(3-aminopropyl)-25-chloro-17-(1H-indol-3-ylmethyl)-16-methyl-23-(1H-tetrazol-5-yl)-2-thia-4,10,13,16,19-pentazatricyclo[19.4.0.03,8]pentacosa-1(21),3,5,7,22,24-hexaene-12,15,18-trione]",10000
